Assay results: publication PMC10283044, “Structure–Activity Relationship of Lower Chlorinated Biphenyls and Their Human-Relevant Metabolites for Astrocyte Toxicity” (Chemical Research in Toxicology, 2023)
Counter-ions that a name gives are not always drawn. Like-named read-outs stand apart in the source and are kept apart here.

Columns and labels:
C6 cells = assay: MTT cell viability assay in C6 cells; assay type: cell-based; settings: 0.5 to 50 μM; for IC50: Rattus norvegicus, C6 cell line, 24 h exposure; for toxicity (cell viability) in the tested concentration range: C6 cells, 24 h
Procedure: C6 cells (CCL-107, Lot No. 63821786) were purchased from the American Type Culture Collection (ATCC, Manassas, VA, U.S.A.). This cell line has been previously used as an in vitro astrocyte model for toxicity[22] and is morphologically and functionally similar to primary astrocyte cultures.[34] The C6 cells were grown and maintained at 37 °C under humidified conditions at 5% CO2 in DMEM/F12 medium supplemented with 10% FBS and 1% P/S. The cells were maintained at a seeding density of 1 × 10^6 cells in 100 mm tissue culture-treated dishes (Cat. No. 430167, Corning, Somerville, MA, U.S.A.). All the experiments for the current study utilizing C6 cells have been performed within passage 2 and passage 20.
(§1) All the LC-PCB exposures or their corresponding human-relevant metabolite exposures were performed in serum-free, phenol-red-free cell culture media suited for the respective cell type described above. The exposures were within a concentration range of 0.5–50 μM for 24 h at 37 °C under humidified conditions at 5% CO2. DMSO was used as a negative control. All stock solutions of the test compounds were prepared in DMSO. The final DMSO concentration was maintained at <0.5% for all the exposures. After the 24 h incubation, either an MTT assay for cell viability or an LDH assay for cytotoxicity was employed.
(§2) C6 or primary cells were seeded in 24-well cell culture plates (Corning Inc., Corning, NY, U.S.A; Cat No. 3526) and allowed to grow until 80–90% confluent. The cells were then exposed to test compounds, as described above (0, 0.5, 1, 5, 10, 20, and 50 μM). The MTT assay was performed, as described[38] with modifications. After 24 h of exposure, the media was removed, and cells were washed with HBSS once. Two hundred microliters of 0.5 mg/mL MTT solution prepared in HBSS/Glucose (Glucose used at 1 mg/mL HBSS) was added to each well of the 24-well plate. The cells were incubated with the MTT solution for 45 min to 1 h at 37 °C under humidified conditions at 5% CO2. After incubation, the MTT solution was removed, and the water-insoluble purple formazan product was dissolved in 400 μL DMSO. This DMSO solution was added to a clear, flat bottom 96-well polystyrene plate (Cat. No. 12-565-501, Thermo Fisher Scientific, Waltham, MA. U.S.A.) in duplicate and read at 570 and 650 nm using a microplate reader (SpectraMax 190, Molecular Devices, San Jose, CA. U.S.A.). The mean percent cell viability was calculated as follows: [drawing 1]

[1] = tested on: mouse primary mixed glial cells; assay: MTT cell viability assay in mouse primary glial cells; assay type: cell-based, C57BL/6 mouse; settings: Glial cell; mouse primary mixed glial cells (about 80% astrocytes, 20% microglia), MTT assay, 24 h
Procedure: (§3) Primary glial cell cultures obtained from PND1-3 C57BL/6 mice pups were provided by Dr. Tjalkens at Colorado State University, Fort Collins, CO, U.S.A. The primary astroglial cell cultures were grown and maintained, as described previously in MEM medium supplemented with 10% FBS and 1% P/S.[37]
as §1, §2

rat primary astrocytes = assay: MTT cell viability assay in rat primary astrocytes; assay type: cell-based, Sprague-Dawley rat; settings: 24 h
From the text: Sprague-Dawley male and female rats were utilized to obtain cultures of sex-specific primary cortical cells. All animal experiments were approved by the Institutional Animal Care and Uses Committee (IACUC) at the University of Iowa. The rat pups were sex-segregated as males and females based on visual examination and later confirmed by the presence of a Y chromosome-specific gene Sry by PCR. The gene for beta-actin, Actb, was used as a control. The primer sequences used for PCR amplification were as described,[35] which yielded a 317-bp product for Sry and a 220-bp product for Actb. Both products were confirmed by gel electrophoresis on a 1% agarose gel after PCR amplification was completed. As previously described, with modifications, astrocytes were obtained from the cortex of PND2/3 rats.[36] Briefly, cortical sections were dissociated in minimal essential medium with Earle’s salts for suspension cultures (S-MEM; Life Technologies) with 1% penicillin/streptomycin and 1.5 U/mL dispase (Life Technologies) for 60 min, aliquoting and replacing dissociation media every 10 min, adding 8000 U/mL DNase I in water after the first digestion. The enzymatic digestion was stopped by adding a growth medium containing minimal essential medium with Earle’s salts (MEM; Life Technologies) with 1% P/S and 10% heat-inactivated horse serum. After digestion, cells were centrifuged for 10 min at 1000 × g at 4 °C, and the pellet was resuspended in a growth medium. Cells were assessed for count and viability and then plated at 10,000 viable cells/cm^2 in T75 flasks. Flasks were shaken after 24 h, and media was replaced to begin removing microglia and then repeated every 2–3 days. Flow cytometry utilizing GFAP and IBA1 antibodies was run at passage 2 to confirm the elimination of microglia from the primary astrocyte cultures. The rat primary astrocyte cultures were maintained in MEM with 1% P/S and 10% heat-inactivated horse serum at 37 °C under humidified conditions at 5% CO2. The detailed protocol for astrocyte isolation of sex segregated rat pups and further validation of purity of astrocyte cultures is published and can be accessed at: dx.doi.org/10.17504/protocols.io.e6nvwjry7lmk/v1.
as §1, §2

[2] = MTT cell viability assay in mouse primary glial cells; assay type: cell-based, C57BL/6 mouse; settings: mouse, primary mixed glial cells, MTT, primary glial cells from C57BL/6 mice
Procedure: as §3, §1, §2

[3] = Astrocyte, sex segregated rat primary astrocytes, female, read-out: IC50 females
[4] = Astrocyte, sex segregated rat primary astrocytes, male, read-out: IC50 males
[5] = read-out: hydroxylated metabolite IC50
[6] = read-out: sulfated metabolite IC50

Compound `Clc1ccc(Cl)c(-c2cc(Cl)ccc2Cl)c1` [PCB52, 2,2′,5,5′-tetrachlorobiphenyl] has an IC50 (C6 cells; read-out: parent compound IC50) of 8.8 µM, an IC50 [1] of 9.8 µM and an IC50 (rat primary astrocytes; [3]) of 14.4 µM. The IC50 (rat primary astrocytes; [4]) was 15.3 µM and the IC50 (rat primary astrocytes; mixed rat primary astrocyte cultures (>95% astrocytes), read-out: IC50) was 11.8 µM.
With `Clc1ccc(-c2ccccc2)cc1` [PCB3, 4-chlorobiphenyl] the “toxicity (cell viability) in the tested concentration range” value (“toxicity (cell viability)” for short) (C6 cells) was “non-toxic” and the IC50 (C6 cells; read-out: parent compound IC50) was greater than 50 µM.
With `Oc1ccc(-c2ccc(Cl)cc2Cl)cc1Cl` [PCB 25 hydroxylated metabolite] the IC50 (C6 cells; [5]) was 5.3 µM.
In the case of `Clc1cccc(-c2cccc(Cl)c2)c1` [PCB11, 3,3′-dichlorobiphenyl], the “toxicity (cell viability)” value (C6 cells) is reported as “non-toxic” and the IC50 (C6 cells; read-out: parent compound IC50) is reported as greater than 50 µM.
For `Oc1ccc(-c2cccc(Cl)c2)cc1Cl` [PCB 11 hydroxylated metabolite], the IC50 (C6 cells; [5]) was 13 µM.
Work on `Oc1ccc(-c2ccc(Cl)cc2)cc1` [PCB 3 hydroxylated metabolite] yielded an IC50 (C6 cells; [5]) of 21.4 µM.
For `Clc1ccc(-c2ccc(Cl)cc2Cl)cc1` [PCB28, 2,4,4′-trichlorobiphenyl], the IC50 (C6 cells; read-out: parent compound IC50) was roughly 25 µM.
In the case of `O=S(=O)(O)Oc1cc(Cl)c(-c2cc(Cl)ccc2Cl)cc1Cl` [4-OH-PCB52 sulfate], the “toxicity (cell viability)” value (C6 cells) is reported as “reduced cell viability”, the IC50 (C6 cells; [6]) is reported as 8.4 µM and the viability at 24 h, 5 µM [2] is reported as greater than 150%. It also gave a viability at 24 h, 10 μM ([2]; next higher concentration after 5 μM) of 20%, an IC50 (rat primary astrocytes; [3]) of 6.9 µM and an IC50 (rat primary astrocytes; [4]) of 7 µM.
In the case of `O=S(=O)(O)Oc1ccc(-c2cccc(Cl)c2)cc1Cl` [PCB 11 sulfated metabolite], the IC50 (C6 cells; [6]) is reported as greater than 50 µM.
Work on `O=S(=O)(O)Oc1ccc(-c2ccc(Cl)cc2)cc1` [PCB 3 sulfated metabolite] yielded an IC50 (C6 cells; [6]) greater than 50 µM.
`O=S(=O)(O)Oc1ccc(-c2ccc(Cl)cc2Cl)cc1Cl` [PCB 25 sulfated metabolite] showed an IC50 (C6 cells; [6]) greater than 50 µM.
Work on `Clc1cccc(-c2ccc(Cl)cc2Cl)c1` [PCB25, 2,3′,4-trichlorobiphenyl] yielded an IC50 (C6 cells; read-out: parent compound IC50) of 10 µM.
Compound `Oc1cc(Cl)c(-c2cc(Cl)ccc2Cl)cc1Cl` [4-OH-PCB52] has an IC50 (C6 cells; [5]) of 2.2 µM, a viability at 24 h, 1 µM ([2]; 1 μM) of 150% and a viability at 24 h, 5 µM [2] of roughly 0%. It also gave an IC50 (rat primary astrocytes; [3]) of 4.4 µM and an IC50 (rat primary astrocytes; [4]) of 4.9 µM.
